From US8790687B2, “Triterpene compounds which are effective on improvement of brain function” (priority 2003, dated 2014) come the findings set out here.

In data set [1] the test system is mice. The experiment in a line: Passive avoidance test, scopolamine-induced memory failure. It is filed as in vivo. The conditions noted are these: scopolamine (1 mg/kg) group = 0%; for memory improvement / prevention activity to memory failure: passive avoidance latency, control without scopolamine and drugs = 100%, oral single administration, dose of compound not given. The text has this: A shuttle box (50×15×40 cm) was used as an experimental device. The box was divided into two rooms by a guillotine door, where one of which was bright by illumination while the other was dark by black cloth, giving rise to two different illumination effects. Firstly, mice were placed into a bright room, the bright room was kept lighted and the guillotine door was kept open. The mice entered the dark room in 20 sec in accordance with their negative phototaxis and the guillotine door was kept closed upon the entrance. The latency period in which a mouse enters the dark room from the bright room was measured in a manner described above. On the first day of the test, all mice were subject to a training trial for 20-sec latency period. Next day, mice subject to the training trial were again placed in the bright room and the bright room was then kept lighted to render mice to enter the dark room. At this time, the electric shock of 0.8 mA was imposed for 3 sec by using an electric grid equipped on the bottom of the dark room to impose the electric shock on the sole of mice feet. After 24 hr of such acquisition trial, mice were again placed in the bright room and the bright room was then kept lighted to induce mice to enter the dark room. At this time, normal mice hesitated to enter the dark room due to the memory about the shock of the previous day. […] The control not subject to the administration of scopolamine and drugs was considered 100% and the group subject to the administration of scopolamine (1 mg/kg), known to result in the failure of memory through the inhibition of transmission of neurotransmitters, was considered 0%.

In data set [2] the test system is ICR mice. The experiment in a line: in vivo. The conditions noted are these: oral; for disorders (general conditions): all dosages (2.0 g/kg, 680, 230, 75 mg/kg); for disorders (general conditions) / results of autopsy (abnormality of organs): ICR mice; for results of autopsy (abnormality of organs): autopsy after 2 weeks observation, versus control group; for LD10: seven times in 1 week, male ICR mice, observed 2 weeks. From the text:
(§1) Furthermore, for 2 weeks after the administration, the death rate, general conditions and body weight of mice were examined and abnormality of organs was observed via autopsy.

Data set [3] in a line: in vivo. The conditions noted are these: male, ICR, mouse, in vivo, po.
Text: as §1

SMILES strings stand for the structures.

The term LD50 denotes the dose expected to kill half of the subjects tested. As to `C[C@H]1[C@H](C)CC[C@]2(C(=O)O)CC[C@]3(C)C(=CC[C@@H]4[C@@]5(C)CC[C@H](O)C(C)(C)[C@@H]5CC[C@]43C)[C@H]12` [ursolic acid], the “memory improvement / prevention activity to memory failure” value (“memory improvement / prevention activity” for short) in data set [1] came to 37.0%. Besides, in data set [2], the “disorders (general conditions)” value is given as “no disorders”, the “results of autopsy (abnormality of organs)” value is “not different from the control group” and the LD10 was determined as 750 mg/kg. Moreover, the LD50 in data set [3] was at least 5000 mg/kg.

For `CC1(C)CC[C@]2(C(=O)O)CC[C@]3(C)C(=CC[C@@H]4[C@@]5(C)CC[C@H](O)C(C)(C)[C@@H]5CC[C@]43C)[C@@H]2C1` [oleanolic acid], in data set [1], the “memory improvement / prevention activity” value stood at 43.3%. In data set [2], the “results of autopsy (abnormality of organs)” value is “not different from the control group” and the LD10 turned out to be 750 mg/kg. This compound also yielded an LD50 in data set [3] of at least 5000 mg/kg.

For the compound `Nc1c2c(nc3ccccc13)CCCC2` [tacrine, reference compound], the “prevention efficacy to memory failure” value in data set [1] (positive control, oral administration 30 mg/kg, control = 100%) worked out at 35%.

Turning to `CC1(C)CCC2(C(=O)O)CCC3(C)C(=CCC4C5(C)CCC(O)C(C)(CO)C5CCC43C)C2C1` (stereo not drawn) [hederagenine], the “memory improvement / prevention activity” value in data set [1] was 41.1%. Also, in data set [2], the “disorders (general conditions)” value is on record as “no disorders”, the “results of autopsy (abnormality of organs)” value is on record as “not different from the control group” and the LD10 is listed as 750 mg/kg. This compound yielded a 50% lethal dose (LD50) in data set [3] of at least 5000 mg/kg.
